Measured values taken from patent publication US20220340975A1, “METHOD OF TREATMENT AND PRONOSTIC OF ACUTE MYELOID LEUKEMIA” (INSERM (Institute National de la Santé et de la Recherche …, priority 2019, published 2022).

Columns and labels:
[1] = test system: NPM1mut AML patient-derived xenograft (H3K27me3HIST1high / H3K27me3HIST1low); test: Patient-derived xenograft (PDX) treated with Ara-C; assay type: in vivo, mice; settings: for Percentage of leukemic initiating cells (LIC) in BM: 2-round ARAC treated versus untreated
Method: FIG. 4: Detection of leukemic initiating cells after ARAC treatment. (A) H3K27me3HIST1^high and H3K27me3HIST1^low AML secondary transplants were injected in immunocompromised mice (NSG). At disease detection, mice were treated with a first round of ARAC (T1). Blasts in the peripheral blood were followed and a second ARAC treatment (T2) was administrated. (B) Frequency of leukemic initiating cells were analyzed in the BM of the transplanted mice. Percentages are calculated in relation to CD45 and CD33 positive cells detected.
We determined the response to chemotherapy according to H3K27me3 status. This was tested in vivo using patient-derived xenograft (PDX) treated with chemotherapeutic drugs (Ara-C). We used secondary transplantation from 1 H3K27me3HIST1low and 2 H3K27me3HIST1high NPM1mut AML patients. Experimental groups of 6 mice/groups of H3K27me3 HIST1high versus H3K27me3 HIST1low were studied. Mice were treated for one week and progression of leukemia was evaluated by counting hCD45+ cells in blood and after euthanasia in bone marrow. Mouse maintenance and experimental procedures were performed in accordance with protocols approved and compliance with policies approved by the local Committee for Animal Experimentation of Marseille (CAE of Provence number 14), France (2-091009).
We performed a second round of ARAC treatment and analyzed the presence of leukemic cells 4-day post treatment. Numbers of blasts were variable depending on the patient with an accumulation in the BM of leukemic Blast in one of the PDX. […] Thus we analyzed the % of LIC in the 2-round ARAC treated mice in comparison to untreated ones (FIG. 4A).

OCI-AML3 cells [2] = test: Morphological analysis (May-Grunwald Giemsa), cells with cytoplasmic granules; assay type: cell-based; settings: ATRA 0.5 μM, 96 h
Method: (§1) (A) OCI-AML cells were stably infected by a doxycycline inducible shCtrl or shH1d. Expression of the main histone H1 genes (HIST1H1B, HIST1H1C, HIST1H1D, HIST1H1E, HIST1H1F0 and HIST1HIFx) were analyzed by qPCR in shCtrl and sh #1 without (Dox−) or with 6-days-induction of doxycycline (Dox+). Data represent three independent Dox inductions. Results are normalized on HPRT and expressed in fold change (FC) between Doxycyline treated (Dox+) and non-treated conditions (Dox−). (B) Percentage of CD11b positive cells in shCtrl and sh #1 upon or not (Dox−) 6-days-induction with 2 μg/mL doxycycline (Dox+), without ATRA (wo ATRA) or with 72 hours of ATRA treatment (0.5 μM or 1 μM). […]
Cytospins were prepared by centrifugation in […] PBS at a speed of 500 rpm for 5 min using Superfrost slides. […] 100 cells were counted in duplicate for each condition and examined for cellular morphology using an structured light ApoTome™ microscope (Zeiss, Munich, Germany) equipped with a 63× 1.4 plan ApoChromat objective and an Axiocam™ MRc5 camera.
To investigate the effect of low H1d expression on AML, we performed H1d knockdown (KD) in OC1-AML3 cells, an AML cell line expressing a NPM1 mutated allele.^26 Efficiency and specificity of our KD were assessed by testing the different mRNA H1 subtypes expression by q-PCR (FIG. 2A) and by measuring H1d protein level after doxycycline induction (data not shown). […]

OCI-AML3 cells [3] = test: CD11b/CD11c differentiation markers by flow cytometry in OCI-AML3 with or without H1d knockdown and ATRA; assay type: cell-based; settings: for proportion of the double positive CD11b/CD11c populations / CD11b expression (percentage of CD11b positive cells): ATRA 0.5 μM; for proportion of the double positive CD11b/CD11c populations: 72 h
Method: (A) OCI-AML cells were stably infected by a doxycycline inducible shCtrl or shH1d. Expression of the main histone H1 genes (HIST1H1B, HIST1H1C, HIST1H1D, HIST1H1E, HIST1H1F0 and HIST1HIFx) were analyzed by qPCR in shCtrl and sh #1 without (Dox−) or with 6-days-induction of doxycycline (Dox+). Data represent three independent Dox inductions. Results are normalized on HPRT and expressed in fold change (FC) between Doxycyline treated (Dox+) and non-treated conditions (Dox−). (B) Percentage of CD11b positive cells in shCtrl and sh #1 upon or not (Dox−) 6-days-induction with 2 μg/mL doxycycline (Dox+), without ATRA (wo ATRA) or with 72 hours of ATRA treatment (0.5 μM or 1 μM). (C) Percentage of CD11b-CD11c cells upon 72 h of ATRA-treatment (0.5 μM) in shCtrl and sh #1 conditions. Data represent three independent experiments. Statistical significance was estimated using Mann Whitney test * p<0.05; **p<0.005. (D) Cytological analysis of shCtrl and sh #1 clones upon or not (Dox−) 6-days-induction with doxycycline (Dox+) and after 96 h of ATRA treatment (0.5 μM). (D) May-Grunwald Giemsa coloration of shCtrl and sh #1 clones after 6-days-induction with doxycycline and 96 h hours of ATRA treatment. Black arrows are pointing cytoplasmic azurophilic granules. (E) Expression analysis of two genes associated with ATRA-induced differentiation: CYBB (Cytochrome B-245 Beta Chain) and ITGAM (Integrin Subunit Alpha M) in untreated OCI-AML3 and in ATRA-treated (1 μM) sh #1 without or with doxycycline induction. Data represent three independent experiments. Gene expression was normalized to two housekeeping genes (PGK1 and PPIA). Statistical significance was estimated using T-test (* one-tailed p value <0.05).
The OCI-AML3 cells were grown in MEMα medium supplemented with 20% fetal bovine serum, 100 U/mL penicillin and 100 U/mL streptomycin at 37° C. in humidified atmosphere containing 5% CO2. H1d knockdown was achieved using doxycylin-induced Dharmacon™SMARTvector™ short hairpin RNA (n° V3SH7669-229784413). A non-silencing sh RNA (piSMART VSC10730) was used as a control (shCtrl). Cells containing the SMARTvector™ were selected on puromycin (2 μg/mL) during one day and sorted using ARIAIII cytometer before clonal selection. Three independent cellular clones (sh #1; sh #2; sh #3) were selected. KD of H1d protein was obtained by the addition on doxycycline (2 μg/mL) during 5-7 days. All-trans-retinoic acid (ATRA; Sigma) was resuspended at 10 mM in DMSO and stored at −20° C. Intermediate dilutions were made in culture medium before adding to the cells.
Flow cytometry analyses were performed using a BD-LSRII cytometer and analyzed using BD-DIVA Version 6.1.2 software (BD Biosciences). […]
(§2) To investigate the effect of low H1d expression on AML, we performed H1d knockdown (KD) in OC1-AML3 cells, an AML cell line expressing a NPM1 mutated allele.^26 Efficiency and specificity of our KD were assessed by testing the different mRNA H1 subtypes expression by q-PCR (FIG. 2A) and by measuring H1d protein level after doxycycline induction (data not shown). Consequences of H1d KD on differentiation were evaluated by measuring CD11b and CD11c expression in OCI-AML3 after doxycycline induction. […] As OCI-AML3 can differentiate in vitro in the presence of ATRA, albeit at low efficiency,^27,28 we further analyzed the effect of H1d KD in combination with ATRA treatment. […]

OCI-AML3 cells [4] = test: qPCR expression of ATRA-induced genes CYBB and ITGAM; assay type: cell-based; settings: ATRA 1 μM, H1d KD versus no doxycycline induction
Method: as §1, §2

| Structure (SMILES) | Percentage of leukemic initiating cells (LIC) in BM ([1]; H3K27me3HIST1high PDX) | Percentage of leukemic initiating cells (LIC) in BM ([1]; H3K27me3HIST1low PDX) | Response to chemotherapy (progression of leukemia, hCD45+ cells) ([1]; first round, one week treatment, all PDX independently of H3K27me3HIST1 status) | proportion of cells with more than two cytoplasmic granules (OCI-AML3 cells [2]; H1d KD) | proportion of cells with more than two cytoplasmic granules (OCI-AML3 cells [2]; control (no H1d KD)) [%] | proportion of the double positive CD11b/CD11c populations (OCI-AML3 cells [3]; H1d KD cells) [%] | proportion of the double positive CD11b/CD11c populations (OCI-AML3 cells [3]; control (no H1d KD)) [%] | CD11b expression (percentage of CD11b positive cells) (OCI-AML3 cells [3]; 72 hours, with H1d KD (doxycycline-induced)) [%] | CD11b expression (percentage of CD11b positive cells) (OCI-AML3 cells [3]; 72 hours, without H1d KD (control)) [%] | CD11b expression (OCI-AML3 cells [3]; ATRA 1 μM, 72 hours, with H1d KD versus control) | CYBB mRNA expression level (OCI-AML3 cells [4]) | ITGAM mRNA expression level (OCI-AML3 cells [4]) |
| --- | --- | --- | --- | --- | --- | --- | --- | --- | --- | --- | --- | --- |
| Nc1ccn([C@@H]2O[C@H](CO)[C@@H](O)[C@@H]2O)c(=O)n1 [ARAC, cytarabine] | identical before and after treatment | increased | Response to chemotherapy was obtained in all mice | – | – | – | – | – | – | – | – | – |
| CC1=C(/C=C/C(C)=C/C=C/C(C)=C/C(=O)O)C(C)(C)CCC1 [ATRA, all-trans retinoic acid] | – | – | – | 31.5±3.7 | 9.7 | 42.5 | 29.8 | 41 | 22.6 | significant increase | increased the amplitude of ATRA-induced upregulation | increased the amplitude of ATRA-induced upregulation |
